{
  "source": "patent US20230392140A1",
  "about": "“REVERSE TRANSCRIPTION OF POLYNUCLEOTIDES COMPRISING UNNATURAL NUCLEOTIDES” (Synthorx, Inc., priority 2020, published 2023)",
  "key": {"E. coli SSO [1]": {"test_system": "E. coli SSO", "assay": "T-RT retention of sfGFP mRNA extracted from SSO in vivo translation experiments", "type": "cell-based", "set-up": "unit of the concentration uncertain", "conditions": "for T-RT retention: mRNA sfGFP(GXT), n = 3", "description": "(§1) Reverse transcription. The reverse transcription reactions were conducted according to the manufacturer's instructions of each reverse transcriptase with the following modifications. In all reverse transcription reactions, 1 μg mRNA or 20 ng tRNA, 0.5 mM dNTP and 0.2 mM dNaMTP or dTPT3TP per 20 μL reaction were used unless stated otherwise. For SuperScript III (18080044, ThermoFisher), reactions were incubated at 55° C. for 45 min, inactivated at 70° C. for 15 min, followed by RNase H (M0297S, New England Biolabs, (NEB)) and RNase A (R1253, ThermoFisher) digestion. For SuperScript IV (18090010, ThermoFisher), reactions were incubated at 55° C. for 20 min, inactivated at 80° C. for 10 min, followed by RNase H, RNase A, and Proteinase K (P8107S, New England Biolabs, (NEB)) digestion. For AMV reverse transcriptase (M0277S, New England Biolabs, (NEB)), reactions were incubated at 42° C. for 60 min, inactivated at 80° C. for 5 min, followed by RNase H and RNase A digestion. After digestion, 10 μL of each reaction mixture was denatured with RNA loading dye (B0363S, New England Biolabs, (NEB)) and subjected to 10% denaturing polyacrylamide gel electrophoresis with 8 M urea (CAS 57-13-6, Sigma Aldrich) for cDNA detection. The other 10 μL of the reaction mixture was purified using a commercial RNA purification kit (D7011, Zymo Research; Irvine, CA) and the product cDNA was quantified using Qubit.\n(§2) SSO in vivo translation. A 2 mL overnight culture of YZ3+pGEX-MbPylRS TetR cells in 2×YT (Y2377, Sigma Aldrich) supplemented with 50 mM potassium phosphate (CAS 7778-77-0, Sigma Aldrich), 5 μg/mL chloramphenicol (CAS 56-75-7, Sigma Aldrich) and 100 μg/mL carbenicillin (C1613, Sigma Aldrich) (herein afterward referred to in this section as “media”) was diluted to an OD600 of 0.03 in the same media, and grown to an OD600 of 0.3 to 0.4. The culture was rapidly cooled in an ice water bath for 5 min with shaking, and then pelleted at 3,200×g for 10 min. Cells were next washed twice with one culture volume of pre-chilled autoclaved Milli-Q H2O. Cells were then resuspended in additional chilled H2O, to an OD600 of 50-60. For each sample tested, 50 μL of the resulting electrocompetent cells were combined with 0.5 ng of Golden Gate assembled plasmid containing the UBP embedded within the sfGFP and tRNA^Pyl genes and then transferred to a pre-chilled electroporation cuvette (0.2 cm gap). Cells were electroporated (Gene Pulser II; Bio-Rad) according to the manufacturer's instructions for bacteria ([…], 2.5 μF, and 200Ω resistor), then immediately diluted with 950 μL of pre-warmed media. 10 μL of this dilution was then diluted with pre-warmed media to a final volume of 50 μL, supplemented with […] and 10 μM dTPT3TP. The transformation was allowed to recover at 37° C. for 1 h. The recovery culture was plated on solid media supplemented with 50 μg/mL zeocin (R25001, ThermoFisher), 150 μM dNaMTP, 10 μM dTPT3TP, and 2% w/v agar, then allowed to grow at 37° C. overnight.\n(§3) Single colonies were isolated and used to inoculate 300 μL liquid media supplemented with 50 μg/mL zeocin (herein afterward referred to in this section as “growth media”) and provided 150 μM dNaMTP, and 10 μM dTPT3TP, then monitored for cell growth via OD600 using an Envision 2103 Multilabel Plate Reader (Perkin Elmer) with a 590/20 nm filter. Cells were collected at an OD600 of ˜0.7, and then an aliquot (100 μL) was subjected to miniprep. Isolated plasmids were subjected to biotin shift assay to determine UBP retention. […] At an OD600 of cultures were supplemented with 250 μM NaMTP and 30 μM TPT3TP unless stated otherwise, as well as 10 mM of the ncAA N6-(2-azidoethoxy)-carbonyl-L-lysine (AzK). The culture was then grown for and additional 20 min before adding IPTG (CAS 367-93-1, Sigma Aldrich) to a concentration of 1 mM and grown for 1 h to induce the transcription of the T7 RNA polymerase, the tRNA^Pyl, and the PylRS. […]"}, "E. coli SSO [2]": {"test_system": "E. coli SSO", "assay": "T-RT retention of M. mazei tRNA extracted from SSO in vivo translation experiments", "type": "cell-based", "set-up": "unit of the concentration uncertain", "conditions": "for T-RT retention: tRNA(AYC), n = 3", "description": "as §1, §2, §3"}, "[3]": {"test_system": "SuperScript III reverse transcriptase", "conditions": "10 ng RNA per reaction, replicate 1, unnatural dNTP supplied, 55 C"}},
  "note": "Where two headings read alike, the source gives them in different places.",
  "data": [
    {"molecule": "COc1cc2ccccc2cc1[C@@H]1O[C@H](COP(=O)(O)OP(=O)(O)OP(=O)(O)O)[C@@H](O)[C@H]1O", "note": "[NaMTP]", "values": [
      {"measurement": "retention of NaM in the mRNA as NaMTP concentration was decreased", "setting": "E. coli SSO [1]; TPT3TP held constant at 250 µM, until NaMTP dropped to less than 50 μM", "value": "remained high"},
      {"measurement": "T-RT retention", "setting": "E. coli SSO [1]; NaMTP concentration 12.5 µM", "value": 0.70},
      {"measurement": "T-RT retention", "setting": "E. coli SSO [1]; NaMTP concentration 25 µM", "value": 0.81},
      {"measurement": "T-RT retention", "setting": "E. coli SSO [1]; NaMTP concentration 50 µM", "value": 0.88},
      {"measurement": "T-RT retention", "setting": "E. coli SSO [1]; NaMTP concentration 125 µM", "value": 0.94},
      {"measurement": "T-RT retention", "setting": "E. coli SSO [1]; NaMTP concentration 250 µM", "value": 0.93}
    ]},
    {"molecule": "O=P(O)(O)OP(=O)(O)OP(=O)(O)OC[C@H]1O[C@@H](n2ccc3ccsc3c2=S)[C@H](O)[C@@H]1O", "note": "[TPT3TP]", "values": [
      {"measurement": "retention of TPT3 in the tRNA as TPT3TP concentration was varied", "setting": "E. coli SSO [2]; NaMTP held constant at 250 (unit uncertain), even at the lowest concentration examined (10 μM)", "value": "remained high"},
      {"measurement": "T-RT retention", "setting": "E. coli SSO [2]; TPT3TP concentration 12.5 (unit uncertain)", "value": 0.95},
      {"measurement": "T-RT retention", "setting": "E. coli SSO [2]; TPT3TP concentration 25 (unit uncertain)", "value": 0.97},
      {"measurement": "T-RT retention", "setting": "E. coli SSO [2]; TPT3TP concentration 50 (unit uncertain)", "value": 0.98},
      {"measurement": "T-RT retention", "setting": "E. coli SSO [2]; TPT3TP concentration 125 (unit uncertain)", "value": 0.95},
      {"measurement": "T-RT retention", "setting": "E. coli SSO [2]; TPT3TP concentration 250 (unit uncertain)", "value": 0.94}
    ]},
    {"molecule": "M. mazei tRNA with NaM anticodon", "values": [
      {"measurement": "activity (full-length product ratio)", "setting": "[3]; NaM ribonucleotide at second nucleotide of anticodon, 0.8789 at 500 ng", "value": 0.973}
    ]},
    {"molecule": "M. mazei tRNA with TPT3 anticodon", "values": [
      {"measurement": "activity (full-length product ratio)", "setting": "[3]; TPT3 ribonucleotide at second nucleotide of anticodon, 0.4423 at 500 ng", "value": 0.917}
    ]}
  ]
}
